The test system of one assay is HCT-116. Put plainly: Antiproliferative activity against human HCT-116 cells overexpressing GLS1 assessed as inhibition of cell proliferation measured after 72 hrs by MTT assay. Type of assay: functional, cell-based. Conditions: HCT-116, 72 h. For orientation: Tetrazolium assays rely on reduction of a dye to a coloured formazan, in cell work by metabolically active cells.

The next assay relates to MDA-MB-436. Put plainly: Antiproliferative activity against human MDA-MB-436 cells overexpressing GLS1 assessed as inhibition of cell proliferation measured after 72 hrs by MTT assay. The format is functional, cell-based. The following applies: MDA-MB-436, 72 h.
The target in assay [1] is T1, Glutaminase kidney isoform, mitochondrial (Homo sapiens, UniProt O94925).
T1 sequence (O94925 whole entry): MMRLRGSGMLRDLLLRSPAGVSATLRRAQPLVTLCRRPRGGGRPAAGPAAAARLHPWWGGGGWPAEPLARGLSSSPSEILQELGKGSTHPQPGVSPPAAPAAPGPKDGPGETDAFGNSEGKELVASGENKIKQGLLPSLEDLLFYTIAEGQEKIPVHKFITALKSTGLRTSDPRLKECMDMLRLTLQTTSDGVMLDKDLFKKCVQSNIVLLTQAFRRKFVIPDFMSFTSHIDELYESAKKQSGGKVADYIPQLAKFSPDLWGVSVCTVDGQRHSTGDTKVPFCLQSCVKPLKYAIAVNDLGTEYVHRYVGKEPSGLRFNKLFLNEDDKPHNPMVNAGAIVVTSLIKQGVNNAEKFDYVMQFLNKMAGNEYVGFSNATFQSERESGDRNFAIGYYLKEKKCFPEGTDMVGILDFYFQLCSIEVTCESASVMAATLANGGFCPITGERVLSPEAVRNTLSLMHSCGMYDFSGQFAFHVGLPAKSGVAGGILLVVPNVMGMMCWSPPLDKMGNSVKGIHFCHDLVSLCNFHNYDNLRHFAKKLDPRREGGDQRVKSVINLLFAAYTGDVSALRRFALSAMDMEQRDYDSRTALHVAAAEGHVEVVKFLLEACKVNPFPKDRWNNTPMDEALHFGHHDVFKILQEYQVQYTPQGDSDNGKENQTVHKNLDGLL
Kind of assay: Allosteric inhibition of human GLS1 using glutamine as substrate incubated for 60 mins by NADH/NADPH-based absorbance analysis.

This passage reports IC50 results from ChEMBL document CHEMBL5154870, “Discovery of novel glutaminase 1 allosteric inhibitor with 4-piperidinamine linker and aromatic heterocycles” (Eur J Med Chem, 2022).

Each structure is given as a SMILES string.

What is called IC50 is the midpoint of a concentration-inhibition curve. Turning to `Cc1ccc(Cn2cc(CCC(=O)Nc3nnc(N4CC[C@@H](Nc5nnc(NC(=O)Cc6ccccc6)s5)C4)s3)nn2)cc1`, the IC50 is 350 nM in the assay on HCT-116, 530 nM in the assay on MDA-MB-436 and 16.6 nM in assay [1].
As to `Cc1ccc(Cn2cc(CCC(=O)Nc3nnc(N4CCC(Nc5nnc(NC(=O)Cc6ccccc6)s5)CC4)s3)nn2)cc1`, the concentration for half-maximal inhibition (IC50) with HCT-116 came to 350 nM; in the assay with MDA-MB-436, 420 nM; in assay [1] it was 12.4 nM.
On to `O=C(Cc1ccccc1)Nc1nnc(N[C@H]2CCN(c3nnc(NC(=O)CCc4cn(Cc5ccc(C(F)(F)F)cc5)nn4)s3)C2)s1`, for which the IC50 in the assay on HCT-116 was 8270 nM; with MDA-MB-436, above 20000 nM; in assay [1] it was 227 nM.
On to `Cc1ccc(Cn2cc(CCC(=O)Nc3ccc(N4CC[C@@H](Nc5nnc(NC(=O)Cc6ccccn6)s5)C4)nn3)nn2)cc1`, for which the IC50 in the assay with HCT-116 came out at 490 nM; with MDA-MB-436 it was 840 nM; in assay [1] it was 8.9 nM.
As to `Cc1ccc(Cn2cc(CCC(=O)Nc3ccc(N4CCC(Nc5nnc(N)s5)CC4)nn3)nn2)cc1`, the concentration for half-maximal inhibition (IC50) in assay [1] was above 10000 nM.
As to `O=C(CCc1cn(Cc2ccc(OC(F)(F)F)cc2)nn1)Nc1ccc(N2CCC(Nc3nnc(NC(=O)Cc4ccccn4)s3)CC2)nn1`, the values for the IC50 (in the assay with HCT-116; with MDA-MB-436; in assay [1]) were 1240 nM, 1020 nM and 17.2 nM, respectively.
As for `O=C(Cc1ccccc1)Nc1nnc(NC2CCN(c3nnc(NC(=O)CCc4cn(Cc5ccc(OC(F)(F)F)cc5)nn4)s3)CC2)s1`, the IC50 is 190 nM with HCT-116, 400 nM in the assay on MDA-MB-436 and 17.1 nM in assay [1].
In assay [1], `Cc1cccc(C)c1Cn1cc(CCC(=O)Nc2ccc(N3CCC(Nc4nnc(N)s4)CC3)nn2)nn1` showed an IC50 above 10000 nM.
`Cc1ccc(Cn2cc(CCC(=O)Nc3ccc(N4CC[C@H](Nc5nnc(NC(=O)Cc6ccccn6)s5)C4)nn3)nn2)cc1`: the figures for the IC50 (in the assay on HCT-116; in the assay with MDA-MB-436; in assay [1]) were above 20000 nM, above 20000 nM and above 1000 nM, respectively.
In assay [1], `Nc1nnc(NC2CCN(c3ccc(NC(=O)CCc4cn(Cc5ccc(OC(F)(F)F)cc5)nn4)nn3)CC2)s1` displayed an IC50 above 10000 nM.
Take `O=C(CCc1cn(Cc2ccc(C(F)(F)F)cc2)nn1)Nc1ccc(N2CCC(Nc3nnc(NC(=O)Cc4ccccn4)s3)CC2)nn1`: the IC50 worked out at 530 nM in the assay on HCT-116, 840 nM with MDA-MB-436 and 18.3 nM in assay [1].
Turning to `O=C(CCc1cn(Cc2ccc(C(F)(F)F)cc2)nn1)Nc1ccc(N2CC[C@H](Nc3nnc(NC(=O)Cc4ccccn4)s3)C2)nn1`, the IC50 is above 20000 nM with HCT-116, above 20000 nM in the assay with MDA-MB-436 and above 1000 nM in assay [1].
For `COc1ccc(Cn2cc(CCC(=O)Nc3ccc(N4CC[C@@H](Nc5nnc(NC(=O)Cc6ccccn6)s5)C4)nn3)nn2)cc1`, the IC50 was 680 nM in the assay with HCT-116, 1540 nM in the assay on MDA-MB-436 and 11.3 nM in assay [1].
For `COc1ccc(Cn2cc(CCC(=O)Nc3ccc(N4CCC(Nc5nnc(NC(=O)Cc6ccccn6)s5)CC4)nn3)nn2)cc1` the same measures were 1450 nM, 2040 nM and 24.9 nM.
As to `COc1ccc(Cn2cc(CCC(=O)Nc3nnc(N4CCC(Nc5nnc(NC(=O)Cc6ccccc6)s5)CC4)s3)nn2)cc1OC`, the IC50 was found to be 3250 nM with HCT-116, 4210 nM in the assay with MDA-MB-436 and 77.5 nM in assay [1].
On to `O=C(CCc1cn(Cc2ccc(OC(F)(F)F)cc2)nn1)Nc1ccc(N2CC[C@H](Nc3nnc(NC(=O)Cc4ccccn4)s3)C2)nn1`, for which the IC50 was above 20000 nM with HCT-116, above 20000 nM in the assay with MDA-MB-436 and above 1000 nM in assay [1].
Turning to `COc1ccc(Cn2cc(CCC(=O)Nc3ccc(N4CC[C@H](Nc5nnc(NC(=O)Cc6ccccn6)s5)C4)nn3)nn2)cc1`, the IC50 was above 20000 nM in the assay with HCT-116, above 20000 nM with MDA-MB-436 and above 1000 nM in assay [1].
As to `Cc1cccc(C)c1Cn1cc(CCC(=O)Nc2ccc(N3CC[C@@H](Nc4nnc(NC(=O)Cc5ccccn5)s4)C3)nn2)nn1`, the concentration for half-maximal inhibition (IC50) with HCT-116 amounted to 3640 nM; in the assay on MDA-MB-436, 4290 nM; in assay [1] it was 41.8 nM.
`COc1ccc(Cn2cc(CCC(=O)Nc3ccc(N4CCC(Nc5nnc(N)s5)CC4)nn3)nn2)cc1`: the IC50 in assay [1] was above 10000 nM.
`Cc1cccc(C)c1Cn1cc(CCC(=O)Nc2nnc(N3CCC(Nc4nnc(NC(=O)Cc5ccccc5)s4)CC3)s2)nn1`: the half-inhibitory concentration (IC50) in the assay with HCT-116 came out at 3960 nM; in the assay with MDA-MB-436, 4580 nM; in assay [1], 69.1 nM.
For `O=C(Cc1ccccc1)Nc1nnc(N[C@H]2CCN(c3nnc(NC(=O)CCc4cn(Cc5ccc(OC(F)(F)F)cc5)nn4)s3)C2)s1` the same measures were 10100 nM, above 20000 nM and 381 nM.
Take `O=C(Cc1ccccc1)Nc1nnc(N[C@@H]2CCN(c3nnc(NC(=O)CCc4cn(Cc5ccc(OC(F)(F)F)cc5)nn4)s3)C2)s1`: the IC50 in the assay with HCT-116 worked out at 580 nM; in the assay with MDA-MB-436, 1650 nM; in assay [1], 16.7 nM.
Take `O=C(Cc1ccccc1)Nc1nnc(N[C@@H]2CCN(c3nnc(NC(=O)CCc4cn(Cc5ccc(C(F)(F)F)cc5)nn4)s3)C2)s1`: the results for the concentration for half-maximal inhibition (IC50) (in the assay on HCT-116; in the assay on MDA-MB-436; in assay [1]) were 290 nM, 630 nM and 12.4 nM, respectively.
For the compound `COc1ccc(Cn2cc(CCC(=O)Nc3nnc(N4CC[C@@H](Nc5nnc(NC(=O)Cc6ccccc6)s5)C4)s3)nn2)cc1`, the IC50 came out at 560 nM with HCT-116, 760 nM with MDA-MB-436 and 57 nM in assay [1].
For `Cc1cccc(C)c1Cn1cc(CCC(=O)Nc2ccc(N3CCC(Nc4nnc(NC(=O)Cc5ccccn5)s4)CC3)nn2)nn1`, the results for the IC50 (in the assay on HCT-116; with MDA-MB-436; in assay [1]) were 6090 nM, 6980 nM and 67.8 nM, respectively.
As to `O=C(Cc1ccccc1)Nc1nnc(N[C@@H]2CCN(c3nnc(NC(=O)CCc4cn(-c5ccc(C(F)(F)F)cc5)nn4)s3)C2)s1`, the results for the IC50 (in the assay on HCT-116; in the assay on MDA-MB-436; in assay [1]) were 850 nM, 2030 nM and 17.9 nM, respectively.
With `Cc1ccc(Cn2cc(CCC(=O)Nc3nnc(N4CC[C@H](Nc5nnc(NC(=O)Cc6ccccc6)s5)C4)s3)nn2)cc1`, the IC50 is 12500 nM with HCT-116, above 20000 nM in the assay with MDA-MB-436 and 312 nM in assay [1].
Take `COc1ccc(Cn2cc(CCC(=O)Nc3ccc(N4CC[C@@H](Nc5nnc(NC(=O)Cc6ccccn6)s5)C4)nn3)nn2)cc1OC`: the IC50 in the assay with HCT-116 was 3880 nM; with MDA-MB-436, 4480 nM; in assay [1], 35.7 nM.
Taken in the same sequence, the figures for `COc1ccc(Cn2cc(CCC(=O)Nc3ccc(N4CCC(Nc5nnc(NC(=O)Cc6ccccn6)s5)CC4)nn3)nn2)cc1OC` were 5750 nM, 6720 nM and 60.7 nM.
Consider `O=C(CCc1cn(Cc2ccc(OC(F)(F)F)cc2)nn1)Nc1ccc(N2CC[C@@H](Nc3nnc(NC(=O)Cc4ccccn4)s3)C2)nn1`, for which the IC50 in the assay on HCT-116 came out at 700 nM; in the assay on MDA-MB-436, 880 nM; in assay [1], 13.6 nM.
Regarding `O=C(CCc1cn(Cc2ccc(C(F)(F)F)cc2)nn1)Nc1ccc(N2CC[C@@H](Nc3nnc(NC(=O)Cc4ccccn4)s3)C2)nn1`, the half-maximal inhibitory concentration (IC50) in the assay on HCT-116 amounted to 510 nM; with MDA-MB-436 it was 730 nM; in assay [1], 10.3 nM.
On to `COc1ccc(Cn2cc(CCC(=O)Nc3ccc(N4CCC(Nc5nnc(N)s5)CC4)nn3)nn2)cc1OC`, for which the concentration for half-maximal inhibition (IC50) in assay [1] was above 10000 nM.
With `COc1ccc(Cn2cc(CCC(=O)Nc3nnc(N4CCC(Nc5nnc(NC(=O)Cc6ccccc6)s5)CC4)s3)nn2)cc1`, the values for the IC50 (in the assay on HCT-116; in the assay with MDA-MB-436; in assay [1]) were 410 nM, 620 nM and 14.7 nM, respectively.
In assay [1], `Nc1nnc(NC2CCN(c3ccc(NC(=O)CCc4cn(Cc5ccc(C(F)(F)F)cc5)nn4)nn3)CC2)s1` registered an IC50 above 10000 nM.
